The target in this test is T1, human TLR7 (Homo sapiens, UniProt Q9NYK1).
T1 construct: host or cells: HEK293 (HEK-Blue hTLR7)
T1 sequence (Q9NYK1 27-1049): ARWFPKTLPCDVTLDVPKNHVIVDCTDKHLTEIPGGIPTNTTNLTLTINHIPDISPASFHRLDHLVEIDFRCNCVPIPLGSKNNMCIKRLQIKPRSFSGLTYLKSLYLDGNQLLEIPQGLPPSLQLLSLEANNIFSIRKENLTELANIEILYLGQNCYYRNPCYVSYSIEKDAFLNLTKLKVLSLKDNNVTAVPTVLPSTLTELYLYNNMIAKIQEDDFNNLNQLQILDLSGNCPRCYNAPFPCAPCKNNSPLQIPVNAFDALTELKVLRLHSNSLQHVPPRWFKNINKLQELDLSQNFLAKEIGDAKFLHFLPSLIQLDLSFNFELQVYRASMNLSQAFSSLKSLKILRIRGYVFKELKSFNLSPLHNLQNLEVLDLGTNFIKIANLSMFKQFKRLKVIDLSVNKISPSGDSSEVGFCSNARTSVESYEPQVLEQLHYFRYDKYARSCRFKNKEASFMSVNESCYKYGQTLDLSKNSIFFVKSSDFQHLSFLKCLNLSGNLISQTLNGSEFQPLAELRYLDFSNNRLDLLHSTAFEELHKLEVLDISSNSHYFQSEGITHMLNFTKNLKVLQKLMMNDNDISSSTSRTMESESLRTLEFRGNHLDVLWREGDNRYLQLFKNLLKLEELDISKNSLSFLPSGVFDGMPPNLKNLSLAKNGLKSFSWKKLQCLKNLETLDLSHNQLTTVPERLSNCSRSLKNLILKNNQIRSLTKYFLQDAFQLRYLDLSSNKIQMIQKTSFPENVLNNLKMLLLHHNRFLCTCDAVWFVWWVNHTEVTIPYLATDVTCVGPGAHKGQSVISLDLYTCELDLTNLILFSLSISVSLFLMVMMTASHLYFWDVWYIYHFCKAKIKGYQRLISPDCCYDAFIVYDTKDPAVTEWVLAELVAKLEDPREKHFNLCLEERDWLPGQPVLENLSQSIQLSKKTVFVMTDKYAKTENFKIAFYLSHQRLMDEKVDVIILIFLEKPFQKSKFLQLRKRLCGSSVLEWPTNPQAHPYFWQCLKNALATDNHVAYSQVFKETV
In words: HEK293-Blue-hTLR-7 cells assay. Type of test: cell-based. The note with it: HEK293-Blue-hTLR7 cells, R848 stimulation, 20 hrs, SEAP reporter; read-out: HEK/hTLR7 IC50. An excerpt:
HEK293-Blue-hTLR-7 cells assay:
A stable HEK293-Blue-hTLR-7 cell line was purchased from InvivoGen (Cat. #: hkb-htlr7, San Diego, Calif., USA). These cells were originally designed for studying the stimulation of human TLR7 by monitoring the activation of NF-κB. A SEAP (secreted embryonic alkaline phosphatase) reporter gene was placed under the control of the IFN-β minimal promoter fused to five NF-κB and AP-1-binding sites. The SEAP was induced by activating NF-κB and AP-1 via stimulating HEK-Blue hTLR7 cells with TLR7 ligands. Therefore the reporter expression was declined by TLR7 antagonist under the stimulation of a ligand, such as R848 (Resiquimod), for incubation of 20 hrs. The cell culture supernatant SEAP reporter activity was determined using QUANTI-Blue™ kit (Cat. #: rep-qb1, Invivogen, San Diego, Ca, USA) at a wavelength of 640 nm, a detection medium that turns purple or blue in the presence of alkaline phosphatase.
HEK293-Blue-hTLR7 cells were incubated at a density of 250,000-450,000 cells/mL in a volume of 170 μL in a 96-well plate in Dulbecco's Modified Eagle's medium (DMEM) containing 4.5 g/L glucose, 50 U/mL penicillin, […], […], 2 mM L-glutamine, 10% (v/v) heat-inactivated fetal bovine serum with addition of 20 μL test compound in a serial dilution in the presence of final DMSO at 1% and 10 μL of 20 uM R848 in above DMEM, perform incubation under 37° C. in a CO2 incubator for 20 hrs. Then 20 μL of the supernatant from each well was incubated with 180 μL Quanti-blue substrate solution at 37° C. for 2 hrs and the absorbance was read at 620˜655 nm using a spectrophotometer. The signaling pathway that TLR7 activation leads to downstream NF-κB activation has been widely accepted, and therefore similar reporter assay was modified for evaluating TLR7 antagonist.
Turning to `CC(C)N1CCc2cnn(C3CN(C[C@H]4CN(c5ccc(C#N)c6ncccc56)C[C@@H](C)O4)C3)c2C1` [Example 8, 5-[(2S,6R)-2-[[3-(6-isopropyl-5,7-dihydro-4H-pyrazolo[3,4-c]pyridin-1-yl)azetidin-1-yl]methyl]-6-methyl-morpholin-4-yl]quinoline-8-carbonitrile], the IC50 amounted to 18 nM.

With `C[C@@H]1CN(c2ccc(C#N)c3ncccc23)C[C@H](CN2CC(n3cc4c(n3)CNC4)C2)O1` [Example 11, 5-[(2S,6R)-2-[[3-(5,6-dihydro-4H-pyrrolo[3,4-c]pyrazol-2-yl)azetidin-1-yl]methyl]-6-methyl-morpholin-4-yl]quinoline-8-carbonitrile], the IC50 is 17 nM.

On to `C[C@@H]1CN(c2ccc(C#N)c3ncccc23)C[C@H](CN2CC(n3ncc4c3CNC4)C2)O1` [Example 10, 5-[(2S,6R)-2-[[3-(5,6-dihydro-4H-pyrrolo[3,4-c]pyrazol-1-yl)azetidin-1-yl]methyl]-6-methyl-morpholin-4-yl]quinoline-8-carbonitrile], for which the IC50 is 16 nM.

`C[C@@H]1CN(c2ccc(C#N)c3ncccc23)C[C@H](CN2CCC(n3cc4c(n3)CCNC4)CC2)O1` [Example 36, 5-[(2R,6S)-2-methyl-6-[[4-(4,5,6,7-tetrahydropyrazolo[4,3-c]pyridin-2-yl)-1-piperidyl]methyl]morpholin-4-yl]quinoline-8-carbonitrile]: the IC50 amounted to 18 nM.
